The source of these data is ChEMBL document CHEMBL1201862, “PubChem BioAssay data set” (2004).

Molecules are shown by their SMILES.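 Compound exposure: 48 hours, 5 concentrations, 96-well plates. GI50 marks 50% less growth.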 The source made the active and inactive calls. Cut-off read from the data, not from the text of the source: active = GI50 up to about 1.1 µM and inactive = higher.

Some test systems named below: MCF7; SNB-75; SK-OV-3; RPMI-8226; SR; KM12; M14; SNB-19; NCI/ADR-RES; IGROV-1; HCT-15; SK-MEL-5; RXF 393; SK-MEL-28; HOP-92; A498; LOX IMVI; SF-268; SF-539; HCC 2998.
Holding throughout (assay): NCI tumour cell line growth inhibition, 48 h

As for `COc1ccc2c(c1)C(=O)/C(=C/c1ccccc1)C2`, the GI50 in the assay on MCF7 was 7.36 µM (inactive); in the assay on SNB-75, 46.5 µM (inactive); with SK-OV-3, > 100 µM (inactive); with RPMI-8226, 45.7 µM (inactive); in the assay on SR it was 76.7 µM (inactive); in the assay on KM12, > 100 µM (inactive). The GI50 in the assay on M14 was 27 µM (inactive); with SNB-19 it was 95.1 µM (inactive); with NCI/ADR-RES, 24.7 µM (inactive); with IGROV-1 it was > 100 µM (inactive); in the assay on HCT-15, 69 µM; with SK-MEL-5 it was 29.4 µM (inactive). Moreover, the GI50 with RXF 393 is 43.9 µM (inactive); with SK-MEL-28 it was > 100 µM (inactive); in the assay with HOP-92, 59.7 µM (inactive); in the assay on A498, 44 µM (inactive).

With `C/C(=N/NC(N)=S)c1ccc2ccccc2c1`, the GI50 is 39.8 µM (inactive) in the assay with LOX IMVI; 25.9 µM (inactive) in the assay with SNB-75; 21.9 µM (inactive) with SK-OV-3; 23.3 µM (inactive) with SF-268; 74.5 µM (inactive) with SR; 9.16 µM (inactive) with KM12. For the same compound, the GI50 in the assay on M14 is 11.8 µM (inactive); with SNB-19, 83.2 µM (inactive); with IGROV-1 it was 32.7 µM (inactive); with SF-539 it was 17.1 µM (inactive); in the assay on HCT-15, 22.2 µM; with SK-MEL-5, 14.2 µM (inactive). Also, the GI50 with RXF 393 was 35.3 µM (inactive); in the assay on HCC 2998, 16 µM (inactive); in the assay on SK-MEL-28, 36.1 µM (inactive); in the assay with HOP-92, > 100 µM (inactive); in the assay on A498, 42.4 µM (inactive).

In the case of `O=C1C=C(C2OC(CO)C(O)C2O)C(=O)N1` (configuration not stated), the GI50 is > 100 µM (inactive) with LOX IMVI; > 91.8 µM (inactive) with MCF7; > 100 µM (inactive) in the assay with SNB-75; > 100 µM (inactive) in the assay with SK-OV-3; > 51.1 µM (inactive) in the assay on RPMI-8226; > 100 µM (inactive) in the assay with SF-268. For the same compound, the GI50 was > 100 µM (inactive) in the assay on KM12; > 100 µM (inactive) in the assay on SNB-19; > 100 µM (inactive) in the assay on NCI/ADR-RES; > 100 µM (inactive) in the assay on IGROV-1; > 100 µM (inactive) in the assay with SF-539; more than 74.5 µM with HCT-15. Also, the GI50 in the assay on SK-MEL-5, with RXF 393, in the assay on HCC 2998, with SK-MEL-28, with HOP-92 and with A498 was > 100 µM (inactive) throughout.

`CCOc1ccc(NC(=O)C(=O)CC(=O)c2sc(NNC(C)=O)nc2C)cc1`: the GI50 in the assay on LOX IMVI, in the assay with SNB-75, with SK-OV-3, with RPMI-8226, with SF-268 and in the assay with SR was > 100 µM (inactive) throughout. In addition, the GI50 in the assay with KM12 is > 100 µM (inactive); with M14 it was > 100 µM (inactive); with SNB-19 it was > 100 µM (inactive); in the assay on IGROV-1, > 100 µM (inactive); with SF-539 it was > 100 µM (inactive); with HCT-15, more than 100 µM. Besides, the GI50 with SK-MEL-5, in the assay on RXF 393, with HCC 2998, in the assay on SK-MEL-28, in the assay with HOP-92 and in the assay with A498 was > 100 µM (inactive) throughout.

In the case of `C/C(=N\Oc1cc(Cl)ncn1)c1ccccn1`, the GI50 in the assay on LOX IMVI was 42.3 µM (inactive); in the assay with MCF7, 55.3 µM (inactive); in the assay on SNB-75, > 100 µM (inactive); in the assay with SK-OV-3, 92.5 µM (inactive); in the assay on RPMI-8226, > 100 µM (inactive); in the assay with SF-268, 58.2 µM (inactive). Besides, the GI50 in the assay with SR is 31.7 µM (inactive); in the assay on KM12, > 100 µM (inactive); in the assay with M14, 18.4 µM (inactive); in the assay on SNB-19 it was > 100 µM (inactive); with NCI/ADR-RES, > 100 µM (inactive); with IGROV-1, 21.9 µM (inactive). For the same compound, the GI50 is 29.6 µM (inactive) with SF-539; 28.1 µM (inactive) with SK-MEL-5; 4 µM (inactive) in the assay with RXF 393; 17.4 µM (inactive) in the assay with HCC 2998; 39.5 µM (inactive) in the assay on SK-MEL-28; 20.5 µM (inactive) in the assay with HOP-92.

On to `COc1ccc(CN2C(=O)C(=O)N(C)C2=O)c2ccccc12`, for which the GI50 with LOX IMVI, in the assay with MCF7, with SNB-75, in the assay with SK-OV-3, in the assay on RPMI-8226 and in the assay with SF-268 was > 10 µM (inactive) in each case. In addition, the GI50 in the assay with SR, in the assay with KM12, in the assay on M14, with SNB-19, with NCI/ADR-RES and in the assay with IGROV-1 was > 10 µM (inactive) in each case. Also, the GI50 in the assay with SF-539 was > 10 µM (inactive); in the assay with HCT-15, more than 10 µM; with SK-MEL-5, > 10 µM (inactive); in the assay with RXF 393, > 10 µM (inactive); in the assay with HCC 2998 it was > 10 µM (inactive); in the assay on SK-MEL-28, > 10 µM (inactive). Further, the GI50 with A498 is > 10 µM (inactive).

In the case of `C=CCCCCCCCCC(=O)O` [UNDECYLENIC ACID], the GI50 in the assay on LOX IMVI is 102 µM (inactive); in the assay with MCF7, 152 µM (inactive); in the assay on SNB-75, 168 µM (inactive); in the assay with SK-OV-3, 138 µM (inactive); in the assay with RPMI-8226, 129 µM (inactive); in the assay with SF-268, 91 µM (inactive). For the same compound, the GI50 is 27.7 µM (inactive) in the assay on KM12; 150 µM (inactive) in the assay with SNB-19; 172 µM (inactive) with NCI/ADR-RES; 113 µM (inactive) in the assay with IGROV-1; 110 µM (inactive) in the assay on SF-539; 76.6 µM in the assay on HCT-15. The GI50 in the assay with SK-MEL-5 is 93.8 µM (inactive); in the assay with RXF 393, 93.1 µM (inactive); with HCC 2998, 108 µM (inactive); with SK-MEL-28 it was 135 µM (inactive); with HOP-92 it was 83.2 µM (inactive); in the assay with A498, 0.798 µM (active).

With `CN(C(=O)C1(C(=O)C=[N+]=[N-])CC1)c1ccccc1`, the GI50 in the assay on LOX IMVI, with MCF7, in the assay with SNB-75, in the assay with RPMI-8226, with SF-268 and in the assay with SR was > 100 µM (inactive) in each case. Further, the GI50 in the assay with KM12, in the assay on M14, in the assay with SNB-19, in the assay on NCI/ADR-RES, in the assay on IGROV-1 and in the assay with SF-539 was > 100 µM (inactive) in each case. Further, the GI50 was more than 100 µM in the assay on HCT-15; > 100 µM (inactive) with SK-MEL-5; > 100 µM (inactive) with RXF 393; > 100 µM (inactive) in the assay with HCC 2998; > 100 µM (inactive) in the assay on SK-MEL-28.

For the compound `CCOC(=O)c1csc(NC(=O)CCN2CCCC2)n1`, the GI50 was > 100 µM (inactive) with LOX IMVI; > 100 µM (inactive) in the assay with MCF7; > 100 µM (inactive) in the assay on SNB-75; > 100 µM (inactive) with SK-OV-3; 86.7 µM (inactive) in the assay with RPMI-8226; 78.5 µM (inactive) in the assay with SR. The GI50 in the assay on KM12, in the assay with M14, with SNB-19, in the assay with NCI/ADR-RES, in the assay with IGROV-1 and in the assay with SF-539 was > 100 µM (inactive) throughout. In addition, the GI50 in the assay with HCT-15 was more than 100 µM; in the assay on SK-MEL-5 it was > 100 µM (inactive); with RXF 393 it was > 100 µM (inactive); with HCC 2998 it was > 100 µM (inactive); in the assay on SK-MEL-28, > 100 µM (inactive); with HOP-92, > 100 µM (inactive).

Take `C=C(C)C(=O)OC1CCC2(C)C(CCC3C2CCC2(C)C(c4ccc(=O)oc4)CC4OC432)C1` (configuration not stated): the GI50 in the assay on LOX IMVI is 3.82 µM (inactive); in the assay on MCF7 it was 2.48 µM (inactive); in the assay on SNB-75, 7.38 µM (inactive); in the assay on SK-OV-3, 20.5 µM (inactive); in the assay on RPMI-8226 it was 1.6 µM (inactive); with SF-268 it was 5.31 µM (inactive). The GI50 is 6.4 µM (inactive) in the assay on KM12; 18.5 µM (inactive) with SNB-19; 6.46 µM (inactive) in the assay on NCI/ADR-RES; 6.75 µM (inactive) with IGROV-1; 5.35 µM (inactive) with SF-539; 6.78 µM in the assay with HCT-15. Also, the GI50 in the assay with SK-MEL-5 was 3.8 µM (inactive); in the assay with RXF 393, 2.78 µM (inactive); in the assay with HCC 2998, 5.19 µM (inactive); in the assay with SK-MEL-28, 12.5 µM (inactive); in the assay on HOP-92, 0.804 µM (active); in the assay with A498, 5.02 µM (inactive).

Consider `CC(=O)OCc1nnn2c1CCC2`, for which the GI50 with LOX IMVI, in the assay with SNB-75, in the assay with SK-OV-3, in the assay on SR, in the assay on KM12 and in the assay on M14 was > 100 µM (inactive) each time. Moreover, the GI50 was > 100 µM (inactive) in the assay on IGROV-1; > 100 µM (inactive) with SF-539; more than 100 µM in the assay with HCT-15; > 100 µM (inactive) in the assay with SK-MEL-5; > 100 µM (inactive) in the assay with RXF 393; > 100 µM (inactive) in the assay on HCC 2998. Moreover, the GI50 in the assay with SK-MEL-28 and with HOP-92 was > 100 µM (inactive) in each case.

As to `O=C1CC2(CCC(O)(c3cccs3)C(C(=O)c3cccs3)C2)C(=O)c2ccccc2N1` (configuration not stated), the GI50 was 89.3 µM (inactive) in the assay with LOX IMVI; 77.4 µM (inactive) in the assay with MCF7; 37.7 µM (inactive) in the assay with SNB-75; > 100 µM (inactive) with SK-OV-3; > 100 µM (inactive) with SF-268; > 100 µM (inactive) in the assay with SR. Moreover, the GI50 in the assay with M14 was > 100 µM (inactive); in the assay on NCI/ADR-RES it was 67.1 µM (inactive); with IGROV-1, > 100 µM (inactive); in the assay on SF-539, > 100 µM (inactive); in the assay with HCT-15, 28.5 µM; with SK-MEL-5 it was 11.8 µM (inactive). For the same compound, the GI50 with RXF 393 is > 100 µM (inactive); in the assay on HCC 2998 it was 38.5 µM (inactive); with HOP-92, > 100 µM (inactive); with A498, > 100 µM (inactive).
